Experimental data taken from BindingDB's records for doi:10.1016/s0960-894x(99)00670-8 (Institute, 2000).
pKi: −log10 of the molar value.

Experiment: Binding affinity was determined against Opioid receptor delta 1 obtained from guinea pig brain membranes using [3H]naltrindole as radioligand

## C[C@H]1C2Cc3ccc(N)cc3[C@@]1(C)CCN2CC1CC1 [3-Cyclopropylmethyl-6,11-dimethyl-1,2,3,4,5,6-hexahydro-2,6-methano-benzo[d]azocin-8-ylamine]
  pKi: 7.92
